Where two headings read alike, the source gives them in different places.
Assays:
[1] = biological target: T1, GABAA α1β2γ2 (Homo sapiens, UniProt P14867+P47870); assay: Automated patch clamp electrophysiology (SyncroPatch), PAM mode, GABAA α1β2γ2 cell line; format: cell-based; conditions: for Emax: maximum fold increase in current relative to Allopregnanolone, GABA EC20 14 μM, read-out: GABAA α1β2γ2 PAM % Emax (to Allo)
T1 construct: expressed in transfected cells; host or cells: HEK293 expressing the Tetracycline repressor protein
T1 sequence (P14867 28-456): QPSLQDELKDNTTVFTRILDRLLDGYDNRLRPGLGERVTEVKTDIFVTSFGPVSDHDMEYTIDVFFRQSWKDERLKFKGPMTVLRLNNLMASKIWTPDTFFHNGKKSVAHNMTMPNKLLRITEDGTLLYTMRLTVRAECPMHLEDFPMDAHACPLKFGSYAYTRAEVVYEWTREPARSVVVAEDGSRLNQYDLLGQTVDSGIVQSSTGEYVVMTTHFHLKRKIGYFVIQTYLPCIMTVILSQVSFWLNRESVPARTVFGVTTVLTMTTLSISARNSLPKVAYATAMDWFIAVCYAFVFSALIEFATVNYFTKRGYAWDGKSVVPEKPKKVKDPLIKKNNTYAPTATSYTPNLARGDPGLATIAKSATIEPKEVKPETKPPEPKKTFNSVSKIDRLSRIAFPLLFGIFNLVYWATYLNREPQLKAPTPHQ
T1 sequence (P47870 25-512 limits assumed): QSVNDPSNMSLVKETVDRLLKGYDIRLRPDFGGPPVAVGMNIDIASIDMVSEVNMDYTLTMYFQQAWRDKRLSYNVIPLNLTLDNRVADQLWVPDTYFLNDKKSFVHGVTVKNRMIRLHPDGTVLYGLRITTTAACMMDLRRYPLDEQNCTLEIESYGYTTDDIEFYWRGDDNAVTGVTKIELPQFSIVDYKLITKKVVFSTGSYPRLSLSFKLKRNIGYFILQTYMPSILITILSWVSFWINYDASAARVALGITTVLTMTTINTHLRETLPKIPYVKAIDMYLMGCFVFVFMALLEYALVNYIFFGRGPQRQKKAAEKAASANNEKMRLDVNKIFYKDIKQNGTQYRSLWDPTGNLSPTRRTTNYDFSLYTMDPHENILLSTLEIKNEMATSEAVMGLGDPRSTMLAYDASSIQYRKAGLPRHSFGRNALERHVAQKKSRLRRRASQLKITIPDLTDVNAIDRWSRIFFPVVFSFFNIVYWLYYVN
T1 sequence (P18507 40-475 partner): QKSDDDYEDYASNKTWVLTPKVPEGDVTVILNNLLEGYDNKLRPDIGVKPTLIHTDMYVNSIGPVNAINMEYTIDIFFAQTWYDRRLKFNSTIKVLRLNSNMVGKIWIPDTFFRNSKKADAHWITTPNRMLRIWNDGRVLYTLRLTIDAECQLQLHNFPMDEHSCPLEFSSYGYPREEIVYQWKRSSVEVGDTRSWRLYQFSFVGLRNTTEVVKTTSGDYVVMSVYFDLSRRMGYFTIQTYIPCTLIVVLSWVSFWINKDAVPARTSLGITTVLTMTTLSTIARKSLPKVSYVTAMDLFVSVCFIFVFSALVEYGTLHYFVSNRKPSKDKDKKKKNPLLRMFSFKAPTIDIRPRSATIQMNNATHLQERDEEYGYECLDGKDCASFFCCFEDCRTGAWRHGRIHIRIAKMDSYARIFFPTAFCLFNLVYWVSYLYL
Description: (§1) Cellular electrophysiology was used to measure the pharmacology properties of the GABA receptor modulators. The GABAA channels are expressed in stable cell lines described herein. The parental cell line used to express the human GABAA channels is the human embryonic kidney (HEK293) cell line expressing the Tetracycline repressor protein to support inducible expression of the target proteins.
(§2) For the GABAA α4β3δ cell line, the α4 and β3 subunits are under control of tetracycline inducible expression system, while the δ subunit is constitutively expressed. For the GABAA α1β2γ2 cell line, the α1 and β2 subunits are under control of tetracycline inducible expression system, whist the γ2 subunit is constitutively expressed.
(§3) Assessment of the compounds against GABAA α1β2γ2 and GABAA α4β3δ was performed using the SyncroPatch automated platform in positive allosteric modulator (PAM) mode. Six concentrations of 20 nM, 62 nM, 185 nM, 555 nM, 1667 nM and 5000 nM were tested across the plate, with a single concentration of compound per well. A minimum of 3 cells were obtained per each concentration of a compound.
(§4) Automated patch clamp-recordings were performed using the SyncroPatch 384PE. The voltage protocol generation and data collection were performed with PatchController384 V1.6.6 and Data Controller V1.6.0. A steady state voltage pulse at −80 mV was applied during the assay.
(§5) The stacked addition protocol was used, in which γ-aminobutyric acid (GABA) was rapidly applied and then washed off from the cell. To test for positive allosteric modulator activity (PAM), first the agonist GABA EC20 (EC20: 10 μM for GABAA α4β3δ channel and 14 μM GABA for the GABAA α1β2γ2 channel) was applied twice (with wash steps in-between) as a control and to show activation reproducibility, followed by a 1-2 minutes pre-incubation of the tested compound and then re-application of GABA EC20 in the presence of a testing compound. Finally, following a further wash step, maximum GABA (10 mM) was applied.
(§6) An Allopregnanolone concentration response was tested as the control PAM on the compound plates. The fold increase was generated using the following equation, (Icomp/Icontrol)−1, where Icomp is the current amplitude in the presence of the compound and Icontrol is the current amplitude in the presence of GABA EC20 alone. This builds an EC50 concentration-response curve, where 0 represents no PAM activity and >0 represents PAM activity.
(§7) A maximum % Emax for each compound is generated using the following equation, (IMaxComp/IAveMaxAllo)*100, where IMaxcomp is the individual maximum fold increase in current for each compound and IAveMaxAllo is the average maximum fold increase generated in the presence of Allopregnanolone. The resultant % Emax values are then averaged. The compound and Allopregnanolone values were obtained from separate cells which were tested in the same compound run. Two GABAA subtypes were tested against each of the compounds as well as the positive control, Allopregnanolone.

[2] = biological target: T2, GABAA α4β3δ (Homo sapiens, UniProt P28472+P48169); assay: Automated patch clamp electrophysiology (SyncroPatch), PAM mode, GABAA α4β3δ cell line; format: cell-based; conditions: for Emax: maximum fold increase in current relative to Allopregnanolone, read-out: GABAA α4β3δ PAM % Emax (to Allo)
T2 construct: expressed in transfected cells; host or cells: HEK293 expressing the Tetracycline repressor protein
T2 sequence (P48169 36-554): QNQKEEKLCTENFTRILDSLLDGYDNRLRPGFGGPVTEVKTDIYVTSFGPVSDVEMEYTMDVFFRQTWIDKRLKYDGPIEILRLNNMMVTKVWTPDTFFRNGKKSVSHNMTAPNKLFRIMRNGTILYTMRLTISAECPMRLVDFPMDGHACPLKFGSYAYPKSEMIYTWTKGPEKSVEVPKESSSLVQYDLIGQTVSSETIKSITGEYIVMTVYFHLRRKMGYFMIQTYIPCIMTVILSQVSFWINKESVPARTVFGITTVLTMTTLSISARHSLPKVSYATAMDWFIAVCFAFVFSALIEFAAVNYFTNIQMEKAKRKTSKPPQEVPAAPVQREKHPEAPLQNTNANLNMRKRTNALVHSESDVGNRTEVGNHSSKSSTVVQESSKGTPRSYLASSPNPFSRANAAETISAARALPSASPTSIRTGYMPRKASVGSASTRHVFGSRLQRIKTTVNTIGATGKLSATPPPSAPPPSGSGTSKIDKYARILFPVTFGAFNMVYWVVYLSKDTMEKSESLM
T2 sequence (P28472 26-473): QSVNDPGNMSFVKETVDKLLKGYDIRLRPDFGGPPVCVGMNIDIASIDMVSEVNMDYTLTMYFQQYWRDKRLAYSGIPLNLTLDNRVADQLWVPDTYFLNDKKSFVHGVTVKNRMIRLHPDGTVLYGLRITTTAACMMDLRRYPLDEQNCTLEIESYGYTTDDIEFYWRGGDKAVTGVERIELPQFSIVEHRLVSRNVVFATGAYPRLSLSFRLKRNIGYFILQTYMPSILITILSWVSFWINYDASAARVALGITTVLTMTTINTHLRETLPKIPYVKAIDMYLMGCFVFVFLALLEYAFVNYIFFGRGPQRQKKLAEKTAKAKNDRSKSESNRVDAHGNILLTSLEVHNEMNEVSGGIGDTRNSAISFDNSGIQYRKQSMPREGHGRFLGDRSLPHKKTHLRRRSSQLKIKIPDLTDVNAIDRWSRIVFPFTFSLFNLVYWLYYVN
T2 sequence (O14764 17-452 partner limits assumed): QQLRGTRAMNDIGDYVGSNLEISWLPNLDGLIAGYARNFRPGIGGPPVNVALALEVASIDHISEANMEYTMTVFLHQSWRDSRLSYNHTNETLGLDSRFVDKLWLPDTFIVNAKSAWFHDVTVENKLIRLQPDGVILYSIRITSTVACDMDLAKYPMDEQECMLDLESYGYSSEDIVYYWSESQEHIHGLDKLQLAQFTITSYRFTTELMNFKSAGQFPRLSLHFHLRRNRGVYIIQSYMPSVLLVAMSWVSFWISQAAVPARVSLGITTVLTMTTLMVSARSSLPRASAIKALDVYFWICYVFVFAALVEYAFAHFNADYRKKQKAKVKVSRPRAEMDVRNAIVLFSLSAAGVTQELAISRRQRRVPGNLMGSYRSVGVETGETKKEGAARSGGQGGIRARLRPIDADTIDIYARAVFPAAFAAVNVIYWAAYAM
Description: as §1, §2, §3, §4, §5, §6, §7

[3] = PAM mode, HEK293 cells expressing human GABAA α1β2γ2, GABA EC20 14 μM, read-out: GABAA α1β2γ2 PAM EC50
[4] = PAM mode, HEK293 cells expressing human GABAA α4β3δ, GABA EC20 10 μM, read-out: GABAA α4β3δ PAM EC50

Compound | EC50 [1, 3] | Emax ([1]; PAM mode) | EC50 [2, 4] | Emax ([2]; PAM mode, GABA EC20 10 μM) | EC50 [1] | EC50 [2]
C#CC1([C@H]2CC[C@H]3[C@@H]4CC[C@@H]5C[C@](C)(O)CC[C@@H]5[C@H]4CC[C@]23C)COC1 [Example 22, (3R,5R,8R,9R,10S,13S,14S,17S)-17-(3-ethynyloxetan-3-yl)-3,13-dimethyl-2,4,5,6,7,8,9,10,11,12,14,15,16,17-tetradecahydro-1H-cyclopenta[a]phenanthren-3-ol] | < 0.5 µM | > 90% | > 1.5 µM | 50 to 90% |  | 
CC1([C@H]2CC[C@H]3[C@@H]4CC[C@@H]5C[C@](C)(O)CC[C@@H]5[C@H]4CC[C@]23C)COC1 [Example 2, (3R,5R,8R,9R,10S,13S,14S,17S)-3,13-dimethyl-17-(3-methyloxetan-3-yl)-2,4,5,6,7,8,9,10,11,12,14,15,16,17-tetradecahydro-1H-cyclopenta[a]phenanthren-3-ol] | 1 to 1.5 µM | > 90% | < 0.5 µM | > 90% |  | 
C[C@@]1(O)CC[C@H]2[C@H](CC[C@@H]3[C@@H]2CC[C@]2(C)[C@@H](C4(C#N)COC4)CC[C@@H]32)C1 [Example 18, 3-((3R,5R,8R,9R,10S,13S,14S,17S)-3-hydroxy-3,13-dimethyl-2,4,5,6,7,8,9,10,11,12,14,15,16,17-tetradecahydro-1H-cyclopenta[a]phenanthren-17-yl)oxetane-3-carbonitrile] | < 0.5 µM | > 90% | < 0.5 µM | 50 to 90% |  | 
CC1([C@H]2CC[C@H]3[C@@H]4CC[C@H]5C[C@H](O)CC[C@]5(C)[C@H]4CC[C@]23C)COC1 [Example 5, (3R,5S,8R,9S,10S,13S,14S,17S)-10,13-dimethyl-17-(3-methyloxetan-3-yl)-2,3,4,5,6,7,8,9,11,12,14,15,16,17-tetradecahydro-1H-cyclopenta[a]phenanthren-3-ol] | 0.5 to 1 µM | 50 to 90% | > 1.5 µM | < 50% |  | 
C[C@@]1(O)CC[C@H]2[C@H](CC[C@@H]3[C@@H]2CC[C@]2(C)[C@@H](C4(CC#N)COC4)CC[C@@H]32)C1 [Example 13, 2-[3-[(3R,5R,8R,9R,10S,13S,14S,17S)-3-hydroxy-3,13-dimethyl-2,4,5,6,7,8,9,10,11,12,14,15,16,17-tetradecahydro-1H-cyclopenta[a]phenanthren-17-yl]oxetan-3-yl]acetonitrile] | 1 to 1.5 µM | > 90% | 1 to 1.5 µM | < 50% |  | 
CC(=O)[C@H]1CC[C@H]2[C@@H]3CC[C@H]4C[C@H](O)CC[C@]4(C)[C@H]3CC[C@]12C [allopregnanolone, 5α-pregnane-3α-ol-20-one, reference compound] |  | > 90% |  | > 90% | < 0.5 µM | < 0.5 µM
C[C@@]1(O)CC[C@H]2[C@H](CC[C@@H]3[C@@H]2CC[C@]2(C)[C@@H](C4(F)COC4)CC[C@@H]32)C1 [Example 10, (3R,5R,8R,9R,10S,13S,14S,17S)-17-(3-fluorooxetan-3-yl)-3,13-dimethyl-2,4,5,6,7,8,9,10,11,12,14,15,16,17-tetradecahydro-1H-cyclopenta[a]phenanthren-3-ol] | < 0.5 µM | > 90% | < 0.5 µM | > 90% |  | 
CC1([C@H]2CC[C@H]3[C@@H]4CC[C@H]5C[C@](C)(O)CC[C@]5(C)[C@H]4CC[C@]23C)COC1 [Example 1, (3R,5S,8R,9S,10S,13S,14S,17S)-3,10,13-trimethyl-17-(3-methyloxetan-3-yl)-1,2,4,5,6,7,8,9,11,12,14,15,16,17-tetradecahydrocyclopenta[a]phenanthren-3-ol] | 0.5 to 1 µM | < 50% | > 1.5 µM | < 50% |  | 
C[C@@]1(O)CC[C@H]2[C@H](CC[C@@H]3[C@@H]2CC[C@]2(C)[C@@H](C4(CF)COC4)CC[C@@H]32)C1 [Example 14, (3R,5R,8R,9R,10S,13S,14S,17S)-17-[3-(fluoromethyl)oxetan-3-yl]-3,13-dimethyl-2,4,5,6,7,8,9,10,11,12,14,15,16,17-tetradecahydro-1H-cyclopenta[a]phenanthren-3-ol] | 1 to 1.5 µM | > 90% | 0.5 to 1 µM | 50 to 90% |  | 
CC1([C@H]2CC[C@H]3[C@@H]4CC[C@@H]5C[C@](C)(O)CC[C@@H]5[C@H]4CC[C@]23C)CCOC1 (stereo partly drawn) [Example 7, (3R,5R,8R,9R,10S,13S,14S,17S)-3,13-dimethyl-17-(3-methyltetrahydrofuran-3-yl)-2,4,5,6,7,8,9,10,11,12,14,15,16,17-tetradecahydro-1H-cyclopenta[a]phenanthren-3-ol] | 0.5 to 1 µM | > 90% | 0.5 to 1 µM | > 90% |  | 

From patent US20230118577A1, “NEUROACTIVE STEROIDS AND PHARMACEUTICAL COMPOSITION CONTAINING THE SAME” (Brii Biosciences, Inc., priority 2020, published 2023)
